Patent US5041460A, “Heter-aliphatic carboxamides” (ICI Americas Inc., priority 1989, dated 1991)

Target: T1, LTD4 /E4 receptors (Cavia porcellus, UniProt Q2NNR5)
T1 construct: membrane fractions, containing the LTD4 /E4 receptors, are prepared from guinea-pig lung parenchyma; from tissue; host or cells: guinea-pig lung parenchyma membrane fractions
T1 sequence (Q2NNR5 1-340): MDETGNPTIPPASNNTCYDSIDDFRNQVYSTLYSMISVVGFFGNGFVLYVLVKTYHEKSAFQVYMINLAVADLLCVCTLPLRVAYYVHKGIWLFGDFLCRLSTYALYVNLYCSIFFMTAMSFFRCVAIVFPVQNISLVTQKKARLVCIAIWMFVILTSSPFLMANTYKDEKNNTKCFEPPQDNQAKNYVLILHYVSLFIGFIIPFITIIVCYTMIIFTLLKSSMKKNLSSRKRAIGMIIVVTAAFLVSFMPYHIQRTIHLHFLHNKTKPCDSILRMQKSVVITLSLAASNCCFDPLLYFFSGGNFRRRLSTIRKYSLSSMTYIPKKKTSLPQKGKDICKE
Assay: receptor-ligand binding assay, 3H-LTD4 on guinea-pig lung parenchyma membrane fractions
Conditions: 1 nM 3H-LTD4, 30 minutes at 22° C.; Ki calculated from IC50 by the Cheng-Prusoff equation
Experimental: According to this procedure, membrane fractions, containing the LTD4 /E4 receptors, are prepared from guinea-pig lung parenchyma and incubated for 30 minutes at 22° C. with 1 nM ^3 H-LTD4 in the absence or presence of tested antagonist. Specific binding, determined under conditions that prevent enzymatic metabolism of ^3 H-LTD4, is the net result of total ^3 H-LTD4 binding minus nonspecific binding determined in the presence of […] excess unlabelled LTD4. Each assay is done in duplicate and results (Ki values) are typically a mean of several such determinations in individual receptor batches.
The % inhibition by a tested antagonist, relative to control binding (vehicle alone), is expressed as a […] of log[antagonist] concentration (in molar units) and the half-maximal inhibition (IC50) determined by computerized non-linear least-square analysis. The binding constant (Ki) is then calculated from IC50 by the Cheng-Prusoff equation: [formula] where [L] is ^3 H-LTD4 concentration and Kd is the affinity constant of LTD4 to this receptor, determined separately for each batch. (Biochem. Pharmacol. 22: 3099-3108, 1973).

Work on `COc1cc(C(=O)NS(=O)(=O)c2ccccc2C)ccc1Cc1cn(C)c2ccc(CCNC(=O)N(C)C)cc12` [Example 4, 4-[5-[2-(N',N'-Dimethylureido)ethyl]-1-methylindol-3-ylmethyl]-3-methoxy-N-(2-methylphenylsulfonyl)benzamide] yielded a Ki of 1 nM.
